Reference: patent publication US11980620B2, “Compounds and methods for treatment of Diamond Blackfan anemia” (THE CHILDREN'S MEDICAL CENTER CORPORATION, priority 2017, dated 2024)

Legend:
[1] = tested on: CD34-5F or CB progenitors; assay: Output of mature RBCs at end of stage III of erythroid culture; format: cell-based, human
Procedure: (FIG. 12A) Erythroid differentiation of control and DBA CD34-5F cells treated with DMSO vehicle or SMER28 (10 μM) during the initial CD34^+ progenitor phase (day 0-4 of differentiation), or stage I of erythroid culture (day 4-9 of differentiation). Percent of erythroid cells after stage I of differentiation is indicated in top left for each condition, and quantitated in (FIG. 12B). Data are shown as mean f s.e.m. of 4 independent experiments, with 2 control and 4 DBA iPSCs. (FIG. 12C) Same as (FIG. 12A) for CB CD34+ cells transduced with shRPS19 hairpins. GFP^+ RPS19^sh and GFP^− control cells were quantitated separately. […] (FIG. 12D) RBC pellets at the end of stage III initiated with equal numbers of CD34-5F or CB progenitors. SMER28 was added at […]. (FIG. 12E) May-Grunwald-Giemsa stain of erythroid cells from CB CD34^+ at end of stage III. Arrows indicate enucleated RBCs, which are quantitated by flow cytometry. (FIG. 12F) Quantitation of the enucleation efficiency (left) of GLYA^+ cells. Data in FIGS. 12E-12F represents 3 independent experiments. For all panels, *p<0.05, **p<0.01.
Erythroblasts proliferate rapidly to give rise to terminally differentiated RBCs. […]

[2] = tested on: K562 erythroleukemia cells transduced with shRPS19; assay: Autophagy induction (p62, LC3-I, LC3-II protein levels) in K562 cells transduced with shRPS19; format: cell-based, human
Procedure: (FIG. 13A) Induction of autophagy by SMER28 (40 μM) monitored by protein levels of p62, LC3-I, and LC3-II after 24 hours. Cells were also treated with 5-FU (100 nM) to induce autophagy, or inhibitor of transcription actinomycin D (ActD; 100 nM). (FIG. 13B) Induction of autophagy by SMER28 (40 μM) monitored by protein levels of p62, LC3-I, and LC3-II after 24 hours treatment with or without lysosomal blockade with bafilomycin A (200 nM for 4 hours). Untreated samples are shown at higher exposure, to capture dynamic changes in the LC3-II levels. Rapamycin (200 nM) is a positive control. LC3-II levels relative to GAPDH are quantitated on the right. (FIG. 13C) Erythroid differentiation of CD34-5F cells transduced with shRNAs for luciferase (LUC) or ATG5±SMER28. Representative flow plots and quantitation showing the number of erythroid cells induced by SMER28 (10 μM) normalized to DMSO. 2 control luciferase shRNAs and 2 ATG5 shRNAs are included (knockdown efficiency in hematopoietic cells of 58% and 50%, respectively), each with 2 independent lines; p=0.005, 3 independent experiments. (FIG. 13D) Atg5 deficiency causes anemia in zebrafish. Wild-type zebrafish embryos were treated with 1.6 ng atg5 or missense morpholino, and hemoglobin staining was visualized with benzidine staining at 40 hpf with SMER28 (1 μM). Representative images (left), and quantitation (right) with embryos grouped by high, medium, and low levels of benzidine staining.
SMER28 was identified as an mTOR-independent inducer of autophagy, by synergizing with rapamycin to promote clearance of protein aggregates in models of neurodegenerative disease (Sarkar et al., 2007; Tian et al., 2011). Autophagy is a pro-survival pathway induced by a variety of stresses, such as nutrient limitation or protein aggregation. Autophagy is required for clearance of mitochondria during terminal erythroid maturation (Mortensen and Simon, 2010), but has not been linked with earlier stages of erythropoiesis. To determine if SMER28 modulates autophagy in erythroid cells, we interrogated the levels of p62 and LC3 in K562 erythroleukemia cells transduced with shRPS19. SMER28 reduced p62 and increased the levels of […] LC3-II isoform associated with autophagosomes (FIG. 13A). […] To measure autophagic flux, we monitored LC3-II levels after blocking lysosomal fusion with bafilomycin A. SMER28 increased LC3-II levels following lysosomal blockade, similarly to the mTOR inhibitor rapamycin (FIG. 13B).
Drug treatments. SMER28 was purchased from Tocris and diluted in 10 mM aliquots in DMSO. The final concentration for CD34-5F and CB CD34^+erythroid treatments was 0.2-10 μM as indicated in the text. The final concentration for K562 cell treatments was 20-40 μM. […]

C=CCNc1ncnc2ccc(Br)cc12 [SMER28, 6-Bromo-N-2-propenyl-4-quinazolinam]
output of RBCs from erythroblasts ([1]; treatment of CD34+ progenitors only): comparable to vehicle controls | output of iPSC- and CB-derived mature RBCs ([1]; treatment of erythroblasts during stages I-III): enhanced | LC3-II levels following lysosomal blockade (autophagic flux) ([2]; SMER28 40 μM 24 hours, bafilomycin A 200 nM for 4 hours): increased | levels of LC3-II isoform associated with autophagosomes ([2]; SMER28 40 μM, 24 hours): increased | p62 protein level ([2]; SMER28 40 μM, 24 hours): reduced
